#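 At the GI50, growth is halved. TGI: concentration producing complete growth inhibition.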
# Assays:
# Test in all cases: NCI-60 cell line screen, 384-well format
# [1] = system: NCI/ADR-RES ovarian
# [2] = system: SW-620 colon
# [3] = system: 786-0 renal
# [4] = system: MALME-3M melanoma
# [5] = system: KM12 colon
# [6] = system: HT29 colon
# [7] = system: HL-60(TB) leukemia
# [8] = system: IGROV1 ovarian
# [9] = system: A498 renal
# [10] = system: MDA-MB-435 melanoma
# [11] = system: NCI-H226 lung
# [12] = system: MDA-MB-468 breast
# [13] = system: SF-539 CNS
# [14] = system: OVCAR-5 ovarian
# [15] = system: T-47D breast
# [16] = system: MDA-MB-231 breast
# [17] = system: SNB-75 CNS
# [18] = system: A549 NSCLC
# [19] = system: HS 578T breast
# [20] = system: SK-MEL-28 melanoma
# [21] = system: BT-549 breast
# [22] = system: NCI-H522 lung
# [23] = system: HOP-92 NSCLC
# [24] = system: SK-MEL-5 melanoma
# [25] = system: SN12C renal
# [26] = system: OVCAR-3 ovarian
# [27] = system: HOP-62 NSCLC
# [28] = system: NCI-H460 NSCLC
# [29] = system: SK-OV-3 ovarian
# [30] = system: TK-10 renal
# [31] = system: RPMI-8226 leukemia
# [32] = system: DU-145 prostate
# [33] = system: HCC-2998 colon
# [34] = system: NCI-H23 lung
# [35] = system: PC-3 prostate
# [36] = system: HCT-15 colon
# [37] = system: CAKI-1 renal
# [38] = system: UACC-257 melanoma
# [39] = system: LOX IMVI melanoma
# [40] = system: MCF7 breast
# [41] = system: SF-295 CNS
# [42] = system: NCI-H322M lung
# [43] = system: CCRF-CEM leukemia
# [44] = system: COLO 205 colon
# [45] = system: OVCAR-4 ovarian
# [46] = system: RXF 393 renal
# [47] = system: SF-268 CNS
# [48] = system: M14 melanoma
# [49] = system: MOLT-4 leukemia
# [50] = system: SR leukemia
# [51] = system: ACHN renal
# [52] = system: EKVX NSCLC
# [53] = system: SNB-19 CNS
# [54] = system: UO-31 renal
# [55] = system: OVCAR-8 ovarian
# [56] = system: UACC-62 melanoma
# [57] = system: K-562 leukemia
compound,measurement,setting,value
CN1C(=O)C(C)(C)Oc2c(-c3cn(C)c(=O)c4[nH]ccc34)cc(S(C)(=O)=O)cc21,GI50,[1],5.65 µM
same,TGI,[1],45.9 µM
same,GI50,[2],1.28 µM
same,TGI,[2],5.61 µM
same,GI50,[3],0.355 µM
same,TGI,[3],7.36 µM
same,GI50,[4],0.115 µM
same,TGI,[4],0.731 µM
same,GI50,[5],0.33 µM
same,TGI,[5],1.91 µM
same,GI50,[6],0.196 µM
same,TGI,[6],7.84 µM
same,GI50,[7],0.0485 µM
same,TGI,[7],0.184 µM
same,GI50,[8],0.329 µM
same,TGI,[8],1.39 µM
same,GI50,[9],0.381 µM
same,TGI,[9],11.5 µM
same,GI50,[10],0.868 µM
same,TGI,[10],12.7 µM
same,GI50,[11],0.223 µM
same,TGI,[11],1.71 µM
same,GI50,[12],0.114 µM
same,TGI,[12],0.439 µM
same,GI50,[13],0.274 µM
same,TGI,[13],1.05 µM
same,GI50,[14],0.271 µM
same,TGI,[14],2.24 µM
same,GI50,[15],0.156 µM
same,TGI,[15],0.865 µM
same,GI50,[16],0.168 µM
same,TGI,[16],2.26 µM
same,GI50,[17],0.343 µM
same,TGI,[17],7.57 µM
same,GI50,[18],0.389 µM
same,TGI,[18],7.08 µM
same,GI50,[19],0.0652 µM
same,TGI,[19],0.349 µM
same,GI50,[20],0.347 µM
same,TGI,[20],4.21 µM
same,GI50,[21],0.164 µM
same,TGI,[21],0.785 µM
same,GI50,[22],0.135 µM
same,TGI,[22],0.544 µM
same,GI50,[23],0.149 µM
same,TGI,[23],1.85 µM
same,GI50,[24],0.178 µM
same,TGI,[24],1.14 µM
same,GI50,[25],0.669 µM
same,TGI,[25],3.55 µM
same,GI50,[26],0.232 µM
same,TGI,[26],1.18 µM
same,GI50,[27],0.287 µM
same,TGI,[27],2.27 µM
same,GI50,[28],1.16 µM
same,TGI,[28],10.4 µM
same,GI50,[29],0.237 µM
same,TGI,[29],1.56 µM
same,GI50,[30],0.279 µM
same,TGI,[30],1.17 µM
same,GI50,[31],0.0234 µM
same,TGI,[31],0.152 µM
same,GI50,[32],1.29 µM
same,TGI,[32],22.9 µM
same,GI50,[33],0.15 µM
same,TGI,[33],0.468 µM
same,GI50,[34],0.257 µM
same,TGI,[34],1.57 µM
same,GI50,[35],1.04 µM
same,TGI,[35],50.7 µM
same,GI50,[36],0.34 µM
same,TGI,[36],2.27 µM
same,GI50,[37],0.229 µM
same,TGI,[37],2.15 µM
same,GI50,[38],0.206 µM
same,TGI,[38],1.33 µM
same,GI50,[39],0.157 µM
same,TGI,[39],0.327 µM
same,GI50,[40],0.0847 µM
same,TGI,[40],0.949 µM
same,GI50,[41],1.05 µM
same,TGI,[41],7.54 µM
same,GI50,[42],0.441 µM
same,TGI,[42],3.9 µM
same,GI50,[43],0.174 µM
same,TGI,[43],1.39 µM
same,GI50,[44],0.228 µM
same,TGI,[44],1.39 µM
same,GI50,[45],0.114 µM
same,TGI,[45],0.346 µM
same,GI50,[46],1.73 µM
same,TGI,[46],10.7 µM
same,GI50,[47],0.728 µM
same,TGI,[47],3.49 µM
same,GI50,[48],0.364 µM
same,TGI,[48],16.3 µM
same,GI50,[49],0.22 µM
same,TGI,[49],1.01 µM
same,GI50,[50],0.0728 µM
same,TGI,[50],0.531 µM
same,GI50,[51],1.48 µM
same,TGI,[51],11 µM
same,GI50,[52],1.51 µM
same,TGI,[52],11.1 µM
same,GI50,[53],0.423 µM
same,TGI,[53],7.13 µM
same,GI50,[54],2.56 µM
same,TGI,[54],> 100 µM
same,GI50,[55],0.235 µM
same,TGI,[55],1.19 µM
same,GI50,[56],0.0687 µM
same,TGI,[56],0.891 µM
same,GI50,[57],0.268 µM
same,TGI,[57],5.65 µM
CC(=O)Nc1nc(C)c(-c2cc3c(c(S(C)(=O)=O)c2)C(=O)N([C@@H](C)C2CC2)C3)s1,GI50,[1],77.4 µM
same,TGI,[1],> 100 µM
same,GI50,[2],> 100 µM
same,TGI,[2],> 100 µM
same,GI50,[3],34.7 µM
same,TGI,[3],> 100 µM
same,GI50,[4],14.9 µM
same,TGI,[4],57.1 µM
same,GI50,[5],42.6 µM
same,TGI,[5],> 100 µM
same,GI50,[6],29.8 µM
same,TGI,[6],> 100 µM
same,GI50,[7],13 µM
same,TGI,[7],33.3 µM
same,GI50,[8],22.6 µM
same,TGI,[8],54.8 µM
same,GI50,[9],19.3 µM
same,TGI,[9],80.4 µM
same,GI50,[10],54.4 µM
same,TGI,[10],> 100 µM
same,GI50,[11],35.7 µM
same,TGI,[11],> 100 µM
same,GI50,[12],15.5 µM
same,TGI,[12],45 µM
same,GI50,[13],31.5 µM
same,TGI,[13],> 100 µM
same,GI50,[14],31.7 µM
same,TGI,[14],> 100 µM
same,GI50,[15],6.04 µM
same,TGI,[15],37.3 µM
same,GI50,[16],22.3 µM
same,TGI,[16],> 100 µM
same,GI50,[17],28.6 µM
same,TGI,[17],> 100 µM
same,GI50,[18],33.6 µM
same,TGI,[18],> 100 µM
same,GI50,[19],17.5 µM
same,TGI,[19],51.4 µM
same,GI50,[20],22.8 µM
same,TGI,[20],> 100 µM
same,GI50,[21],36.9 µM
same,TGI,[21],> 100 µM
same,GI50,[22],25.7 µM
same,TGI,[22],78.2 µM
same,GI50,[23],32.1 µM
same,TGI,[23],> 100 µM
same,GI50,[24],15 µM
same,TGI,[24],41.4 µM
same,GI50,[25],25.1 µM
same,TGI,[25],91.3 µM
same,GI50,[26],26.5 µM
same,TGI,[26],> 100 µM
same,GI50,[27],30.4 µM
same,TGI,[27],> 100 µM
same,GI50,[28],30 µM
same,TGI,[28],> 100 µM
same,GI50,[29],19.3 µM
same,TGI,[29],48.5 µM
same,GI50,[30],31.8 µM
same,TGI,[30],> 100 µM
same,GI50,[31],19.9 µM
same,TGI,[31],40.8 µM
same,GI50,[32],34.9 µM
same,TGI,[32],> 100 µM
same,GI50,[33],51.3 µM
same,TGI,[33],> 100 µM
same,GI50,[34],28.7 µM
same,TGI,[34],> 100 µM
same,GI50,[35],39.6 µM
same,TGI,[35],> 100 µM
same,GI50,[36],28.6 µM
same,TGI,[36],93.4 µM
same,GI50,[37],25.5 µM
same,TGI,[37],77.6 µM
same,GI50,[38],27.2 µM
same,TGI,[38],> 100 µM
same,GI50,[39],28.2 µM
same,TGI,[39],86.3 µM
same,GI50,[40],24.6 µM
same,TGI,[40],> 100 µM
same,GI50,[41],27.9 µM
same,TGI,[41],> 100 µM
same,GI50,[42],30.3 µM
same,TGI,[42],> 100 µM
same,GI50,[43],0.0269 µM
same,TGI,[43],11.7 µM
same,GI50,[44],38.8 µM
same,TGI,[44],> 100 µM
same,GI50,[45],20.8 µM
same,TGI,[45],77 µM
same,GI50,[46],30.9 µM
same,TGI,[46],> 100 µM
same,GI50,[47],34.7 µM
same,TGI,[47],> 100 µM
same,GI50,[48],31.7 µM
same,TGI,[48],> 100 µM
same,GI50,[49],17.5 µM
same,TGI,[49],33.1 µM
same,GI50,[50],17.3 µM
same,TGI,[50],43.8 µM
same,GI50,[51],31 µM
same,TGI,[51],> 100 µM
same,GI50,[52],42.1 µM
same,TGI,[52],> 100 µM
same,GI50,[53],82.2 µM
same,TGI,[53],> 100 µM
same,GI50,[54],31.6 µM
same,TGI,[54],> 100 µM
same,GI50,[55],48 µM
same,TGI,[55],> 100 µM
same,GI50,[56],29.1 µM
same,TGI,[56],> 100 µM
same,GI50,[57],29.1 µM
same,TGI,[57],> 100 µM
